Measurements reported in US20120164203A1, “PROCESS FOR PREPARATION OF STABLE, MICROENCAPSULATED AND SUSTAINED RELEASE BIOCIDAL ACTIVES AND COMPOSITION THEREOF” (priority 2009, published 2012).

What was measured:
[1] = Analytical determination of active ingredient in the leachate (water, UV-Vis); assay type: physicochemical; conditions: active 5% in water
Method: The active ingredient is added (5%) to required amount of water. After a certain amount of time, the leachate is collected through a filter and the same amount of water replaced. The amount of active ingredients of each leachate is determined analytically by UV-Vis.

[2] = Analytical determination of active ingredient leaching out of a paint film (UV-Visible); assay type: physicochemical; conditions: PVA paint film, total IPBC incorporated 2000 ppm
Method: The active ingredient is added to PVA paint to a final concentration of 2000 ppm. Drawdown of the paint samples are prepared by casting a 3-mil film onto drawdown paperboard (Lanetta). The drawdown samples are allowed to dry at room temperature for 24 hrs. A sample of 2×6 cm is cut. The cut samples are then placed in 100 ml of water in a closed beaker for the different duration of time limits. At different time intervals the water is collected and replaced with the same amount of water. The quantity of the active ingredient present in each leachate is determined by UV-Visible spectroscopic method.

[3] = tested on: Escherichia coli ATCC 11229; experiment: Antimicrobial activity (log reduction) on flexible PVC surface, Z 2801:2000; assay type: cell-based; conditions: 24 hrs incubation
Method: (§1) The aqueous biocidal dispersion containing encapsulated biocide was prepared as described in example 19 to provide 20% BIT (prepared as described in Example 5). The dispersion was incorporated into flexible PVC using a Brabender. The plastic samples containing different BIT concentrations were tested according to the Japanese HS Z 2801:2000 entitled “Antimicrobial products-test for antimicrobial activity and efficacy.”
(§2) Briefly, samples were inoculated on the surface with bacterial strains such as Escherichia coli ATCC 11229 or Staphylococcus aureus ATCC 6538. After 24 hrs of incusbation, the samples were examined to determine the number of bacterial count left on the surface of the sample. A reduction in the bacterial population or count was estimated based on the plate count of the control (untreated or blank) sample and treated samples. The results of this activity indicate that aqueous biocidal dispersion prepared according to the present invention provides better antibacterial activity through larger log reduction and is shown in Table 3.

[4] = tested on: Staphylococcus aureus ATCC 6538; experiment: as above; assay type: cell-based; conditions: 24 hrs incubation
Method: as §1, §2

In the case of `CCNc1nc(NC(C)(C)C)nc(SC)n1` [Non-encapsulated Terbutryn, Terbutryn], the “Terbutryn in water (in ppm)” value ([1]; leaching time 5 minutes) is reported as 150 ppm, the “Terbutryn in water (in ppm)” value ([1]; leaching time 1 hr) is reported as 90 ppm and the “Terbutryn in water (in ppm)” value ([1]; leaching time 24 hrs) is reported as 79.8 ppm.

In the case of `CCCCNC(=O)OCC#CI` [Non-encapsulated IPBC, 3-iodo-2-propargyl butyl carbamate], the “IPBC (in ppm) leached from Paint film” value ([2]; leaching time 1 hr) is reported as 1050 ppm, the “IPBC (in ppm) leached from Paint film” value ([2]; leaching time 3 hrs) is reported as 102 ppm and the “IPBC (in ppm) leached from Paint film” value ([2]; leaching time 15 hrs) is reported as 65 ppm. For the same compound, the “IPBC (in ppm) leached from Paint film” value ([2]; leaching time 48 hrs) was 78 ppm, the “IPBC in water (in ppm)” value ([1]; leaching time 5 minutes) was 356 ± 4 ppm and the “IPBC in water (in ppm)” value ([1]; leaching time 1 hr) was 273 ± 10 ppm. For the same compound, the “IPBC in water (in ppm)” value ([1]; leaching time 24 hrs) was 236 ± 22 ppm.

For `O=c1[nH]sc2ccccc12` [BIT, 1,2-benzisothiazoline-3-one], the “Antimicrobial Activity (Log Reduction) E. coli” value ([3]; 100 ppm in flexible PVC) was 0.9, the “Antimicrobial Activity (Log Reduction) E. coli” value ([3]; 250 ppm in flexible PVC) was 2.5 and the “Antimicrobial Activity (Log Reduction) S. aureus” value ([4]; 100 ppm in flexible PVC) was 0.2. For the same compound, the “Antimicrobial Activity (Log Reduction) S. aureus” value ([4]; 250 ppm in flexible PVC) was 0.6.

For `CN(C)C(=O)Nc1ccc(Cl)c(Cl)c1` [Non-encapsulated Diuron, Diuron], the “Diuron in water (in ppm)” value ([1]; leaching time 30 minutes) was 53.6 ppm, the “Diuron in water (in ppm)” value ([1]; leaching time 2 hrs) was 51.4 ppm and the “Diuron in water (in ppm)” value ([1]; leaching time 4 hrs) was 54.6 ppm. For the same compound, the “Diuron in water (in ppm)” value ([1]; leaching time 20 hrs) was 52.0 ppm.
